Experimental data reported in publication PMC9982066, “Inhibition of Ehrlichia chaffeensis infection by cell-permeable macrocyclic peptides that bind type IV secretion effector Etf-1” (PNAS Nexus, 2023).
Like-named read-outs stand apart in the source and are kept apart here. Starred links: 1 amine or outer side, 2 acyl side, 3 side chain; linkers in the order of their positions; H or OH if unused. Positions of bridges follow the written chain, without caps; N, C: chain ends. Non-standard residues stand in square brackets, D forms with d. Residues, ends and D or L forms follow the SMILES beside them. Trimesoyl = O=C(c1cc(C(=O)[*:2])cc(C(=O)[*:3])c1)[*:1]; Phe(4-Cl) = N[C@@H](Cc1ccc(Cl)cc1)C(=O)O; 2Nal = N[C@@H](Cc1ccc2ccccc2c1)C(=O)O; d2Nal = N[C@H](Cc1ccc2ccccc2c1)C(=O)O; Phg = N[C@H](C(=O)O)c1ccccc1; d(β3hA) = C[C@@H](N)CC(=O)O; Dap = NC[C@H](N)C(=O)O

Legend:
Etf-1 [1] = molecular target: T1, Etf-1 (Ehrlichia chaffeensis, UniProt Q2GG12); assay: biochemical; assay type: binding; details: for competition for Etf-1 binding: unlabeled competitor peptides vs FAM-B7-133-8
T1 sequence (Q2GG12 entry or part of it): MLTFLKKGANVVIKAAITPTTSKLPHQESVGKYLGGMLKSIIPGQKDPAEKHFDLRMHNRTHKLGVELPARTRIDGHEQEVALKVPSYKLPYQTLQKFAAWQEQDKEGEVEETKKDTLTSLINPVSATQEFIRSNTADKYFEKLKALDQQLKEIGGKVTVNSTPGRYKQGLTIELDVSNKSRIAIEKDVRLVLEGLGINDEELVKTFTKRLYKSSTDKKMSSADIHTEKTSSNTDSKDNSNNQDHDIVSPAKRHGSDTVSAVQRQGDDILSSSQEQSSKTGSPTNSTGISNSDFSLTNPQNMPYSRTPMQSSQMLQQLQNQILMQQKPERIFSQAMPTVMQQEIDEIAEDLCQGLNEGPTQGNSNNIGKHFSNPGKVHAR
Description: (§1) Fig. 2. Determination of binding affinity of Etf-1-binding peptides by FP assay. […] FAM-labeled peptide (50 nM) was incubated with serially diluted Etf-1 (starting from 25–30 μM in PBS, pH 7.4, supplemented with 5 mM DTT and 0.01% Triton X-100) for 1 h at RT. FP values were measured on a Tecan Infinite M1000 Pro plate reader. Titration curves (n ≥ 3) were fitted using GraphPad Prism and analyzed with TraceDrawer to calculate dissociation constants (KD). […] Data were analyzed using GraphPad Prism and fitted to a four-parameter variable slope equation to determine IC50 values.
Serial dilutions of competitor peptide (0-20 μM) were prepared from DMSO stock solutions into PBS containing 0.01% Triton-X100 and 2 mM TCEP and added to aliquots of the equilibrated Etf-1/probe solution. After incubation for 1 h in the dark and with gentle mixing, 20 μL of each sample was transferred into 384-well black-on-black microplates and FP was measured using a TECAN Infinite M1000 plate reader. Data were analyzed using GraphPad PRISM ver. 8.0 and fit to a four-parameter variable slope equation to determine IC50 values. IC50 values reported are the mean ± SD of n = 2–4 independent experiments.

E. chaffeensis [2] = assay: morphological examination of E. chaffeensis infection of THP-1 cells by Diff-Quik staining; details: for E. chaffeensis infection (numbers and sizes of morulae): THP-1 cells, Fig. S4 (with Figs. 5, S3)
BECN1 binding to Etf-1 = assay: streptavidin magnetic beads pull-down of BECN1 with biotin-Etf-1, Western blot; assay type: biochemical; details: 10 µM peptide; for BECN1/Etf-1 Ratio: band intensities, DMSO control set as 1, Fig. 8B
Description: Fig. 8.
Streptavidin magnetic beads (15 µL, Pierce, Rockford, IL, USA) were washed with 1 mL of Bind/Wash buffer (25 mM Tris, pH 7.4; 250 mM NaCl, 0.1% Tween 20), and incubated with 0.15 µg ([…] final concentration) of biotinylated full-length Etf-1 protein in bind/wash buffer at 4°C overnight with end-to-end rotation. Beads were washed three times with Bind/Wash buffer, then incubated with Etf-1-binding macrocyclic peptides (10 µM) or DMSO control in Bind/Wash buffer at room temperature for 2 h. […] Beads were washed three times, and proteins were eluted from the beads with 50 µL of 2× SDS-sample buffer. […] Reacting bands were visualized with enhanced chemiluminescence by incubating the membrane with LumiGLO chemiluminescent reagent (Thermo Fisher Scientific). Images were captured by Amersham Imager 680 (GE Healthcare) and densitometry analysis was performed using ImagQuaNT (GE Healthcare). In each specimen, band intensities were normalized against those of actin as the loading control, and the ratios of the treatment group to the control group were calculated with the value in the control groups arbitrarily set as 1.0.

[3] = LDH release assay (plasma membrane damage); assay type: cell-based; details: Fig. S2
Description: LDH release assay (Promega) was performed to assess the level of plasma membrane damage in a cell population by these compounds. […] Control wells contained 10 μL of lysis buffer, cell-free complete growth media, or positive LDH control. Following incubation at 37°C and 5% CO2 for 45 to 75 min, the culture was centrifuged and 50 μL of the growth medium was withdrawn from each well, transferred to a clear 96-well plate, mixed with 50 μL of LDH substrate mixture, and incubated at RT for 30 min with gentle mixing. Finally, 50 μL of 1 N HCl was added to each well, and the absorbances at 490 and 680 nm were immediately measured on a Tecan Infinite M1000 plate reader. Relative membrane leakage was calculated and plotted using GraphPad Prism v8.0.

E. chaffeensis [4] = assay: E. chaffeensis infection of THP-1 cells, qPCR of 16S rRNA gene normalized to human actin; assay type: cell-based, Ehrlichia chaffeensis; details: for inhibition of E. chaffeensis infection: 10 μM, 2 days, vs DMSO control
[5] = serum stability assay (UPLC); assay type: in vitro ADME; details: 25% (v/v) in DPBS; 25% human serum, 37°C, after 22 h; read-out: degradation
Description: In comparison, the linear peptide Tat (cell-permeable peptide of HIV) was completely degraded within the first 120 min of incubation (Fig. 4B).
Human serum was diluted to 25% (v/v) in sterile DPBS and equilibrated at 37°C for 15 min. Peptides were added to the diluted serum to a final concentration of 20 μM and incubated at 37°C with gentle mixing. At designated time points, 30 μL aliquots were withdrawn and mixed with 30 μL of 15% trichloroacetic acid in MeOH (w/v) and 30 μL of MeCN and stored at 4°C overnight to completely precipitate the serum proteins. Next, each aliquot was centrifuged (15,000g, 5 min, 4°C) and 14 μL of the supernatant was injected in an UPLC equipped with an analytical Waters Acquity UPLC BEH C18 column (1.7 μm, 2.1 mm I.D., 100 mm length) and an inline UV-Vis detector and a single quadrupole mass detector. The column was eluted with a linear gradient of 20–50% MeCN in ddH2O containing 0.1% TFA. A UV/Vis detector at 214 nm and the mass spec quantifying the ion counts corresponding to the [M + 3H]^3+ ion of the analytes were used to analyze the samples. The area under the peak of interest was obtained by integration, normalized to that of the peptide at t = 0, and plotted as a function of the incubation time to determine the serum half-life of the peptide.

Etf-1 [6] = molecular target: T1, Etf-1; assay: FP assay of Etf-1 binding with FAM-labeled peptides
Description: The peptides were labeled at their C-terminus with carboxyfluorescein (FAM) through a β-Ala-β-Ala-Lys linker and evaluated for binding to Etf-1 by using a fluorescence polarization (FP) assay. […] This outcome is not unexpected, as screening OBOC libraries is often complicated by false positives, due to the presence of high ligand densities on library beads ([28]).
as §1
Etf-1 and macrocyclic peptides were serially diluted in PBS supplemented with 5 mM DTT and 0.01% Triton X-100 (v/v). FAM-labeled peptides (50 nM) were prepared from a 10-μM DMSO stock and incubated with serially diluted Etf-1 for 1 h at room temperature (RT). Twenty microliters of the solutions were transferred to a black 384-well plate (Greiner Bio-One) and FP values were measured on a Tecan Infinite M1000 Pro plate reader with excitation and emission wavelengths at 470 and 535 nm, respectively. Titration curves (n ≥ 3) were fitted using GraphPad Prism v8.0 (GraphPad, La Jolla, CA, USA), and analyzed with TraceDrawer software v1.8 (Ridgeview Instruments AB, Uppsala, Sweden) to calculate the dissociation constant (KD, in nM).

Etf-1-GFP = assay: mitochondrial localization of ectopically expressed Etf-1-GFP in RF/6A cells; assay type: cell-based, Ehrlichia chaffeensis; details: 10 μM, 2 days
Description: For mitochondria localization analysis, RF/6A cells were seeded onto a cover glass in a 12-well plate for 3 h, then infected with E. chaffeensis at ∼30 MOI. Alternatively, cells were transfected with Etf-1-GFP or Etf-1-DsRed plasmids using Fugene HD (Promega) or by electroporation at 100 V and 1,000 µF using the Gene Pulser Xcell System (BioRad) according to the manufacturers’ instructions ([16]). […] To examine the roles of macrocyclic peptides on Etf-1 localization on E. chaffeensis inclusions, infected RF/6A cells were treated with 10 μM peptides at 3 h pi for 2 days. At 2 days pi or pt, cells were washed 3 times with PBS, then fixed in 4% PFA for 20 min. Native Etf-1 and mitochondria marker cytochrome C proteins were labeled with rabbit anti-Etf-1 IgG and mouse anti-cytochrome C, then with AF488-conjugated goat anti-rabbit and anti-mouse secondary antibodies in PGS (PBS with 0.1% gelatin and 0.1% saponin) for 1 h each at RT. Host-cell and Ehrlichial DNAs were stained with 300 nM DAPI, and fluorescence with differential interference contrast images were observed and captured with a DeltaVision deconvolution microscope (Applied Precision, Issaquah, WA, USA). Percentages of Etf-1 protein colocalization with macrocyclic peptides or E. chaffeensis inclusions were quantified by counting 10–20 cells per group from three independent experiments.

THP-1 cells = assay: CellTiter-Glo luminescent cell viability assay; details: 20 μM, 2-day treatment
Source text: THP-1 (human promyelocytic leukemia) cells are widely used as E. chaffeensis infection studies of human monocytes in vitro, since initial characterization of infection ([31]).
Fig. 4. Cytotoxicity and proteolytic stability of Etf-1-binding peptides. (A) Effect of Etf-1-binding peptides on the viability of THP-1 cells as determined by CellTiter-Glo luminescent assay. Relative luminescence was plotted as function of the peptide concentration, with the cell viability of DMSO control group set as 100%. (B) Plot of the amount of intact peptide remaining as a function of the incubation time in 25% human serum. All values are normalized to that of peptide at time 0 (100%).
Cytotoxicity of Etf-1-binding peptides was examined by CellTiter-Glo luminescent cell viability assay (Promega, Madison, WI, USA). THP-1 cells were seeded in a transparent 96-well plate at a density of 5 × 10^3 cells/well (100 μL in each well) in RPMI-1640 containing 10% FBS and 1% antibiotics and cultured overnight. Etf-1-binding peptides were serially diluted in DPBS from a DMSO stock and added to the cells with the final concentration of 0–25 μM and a constant final concentration of 0.5% DMSO (v/v). After incubation at 37°C with 5% CO2 for 46 h, the plate was removed and pre-equilibrated to RT before the addition of 100 μL of the CellTiter-Glo 2.0 reagent to each well. The plate was incubated for 15 min on a rotary shaker in the dark, and the luminescence was detected (1-s integration time) on a Tecan Infinite M1000 Pro microplate reader. Relative luminescence was plotted as function of the peptide concentration, with the cell viability of DMSO control group set as 100%.

| SMILES | IC50 (Etf-1 [1]) [nM] | competition for Etf-1 binding (Etf-1 [1]) | cytotoxicity (cell lysis in treated groups) (E. chaffeensis [2]) | E. chaffeensis infection (numbers and sizes of morulae) (E. chaffeensis [2]) | disruption of BECN1 binding to Etf-1 (BECN1 binding to Etf-1; compared to DMSO control) | BECN1/Etf-1 Ratio (BECN1 binding to Etf-1) | release of lactate dehydrogenase (LDH) [3] | inhibition of E. chaffeensis infection (E. chaffeensis [4]) | dose dependence of inhibition of E. chaffeensis infection (E. chaffeensis [4]; 1, 5, and 10 μM) | inhibition of E. chaffeensis infection compared with peptide B7 (or B7-16) (E. chaffeensis [4]; THP-1 cells) | metabolised at 22 h, 20 µM [5] [%] | Kd (Etf-1 [6]) [nM] | effect on mitochondrial localization of Etf-1-GFP (Etf-1-GFP) | cell viability (THP-1 cells) | cytotoxicity (cell lysis in treated groups) (E. chaffeensis [2]; THP-1 host cells) |
| --- | --- | --- | --- | --- | --- | --- | --- | --- | --- | --- | --- | --- | --- | --- | --- |
| CC(C)C[C@H]1NC(=O)[C@H]2CCCN2C(=O)C[C@@H](C)NC(=O)[C@H](CCC(N)=O)NC(=O)[C@@H](Cc2ccc3ccccc3c2)NC(=O)[C@H](Cc2ccc(O)cc2)NC(=O)c2cc3cc(c2)C(=O)NC[C@H](NC1=O)C(=O)N[C@@H](Cc1ccc(Cl)cc1)C(=O)N[C@H](Cc1ccc2ccccc2c1)C(=O)N[C@H](CCCNC(=N)N)C(=O)N[C@@H](CCCNC(=N)N)C(=O)N[C@H](CCCNC(=N)N)C(=O)N[C@@H](CCCNC(=N)N)C(=O)N[C@H](C(N)=O)CNC3=O [Peptide B7-133-8, TMA-Tyr-nal-Gln-homoAla-pro-leu-Dap-4-ClPhe-nal-arg-Arg-arg-Arg-Dap] (Y[d2Nal]Q[d(β3hA)][dP][dL][Dap][Phe(4-Cl)][d2Nal][dR]R[dR]R[Dap]-NH2; linker N-7-14 via Trimesoyl) | 110 ± 20 | Competition for Etf-1 binding was observed | certain degrees of cytotoxicity | significantly inhibited | disrupted BECN1 binding to Etf-1 | 0.19 | significant release of lactate dehydrogenase | significantly inhibited | dose-dependent manner | significantly more potent inhibition | < 20 |  |  |  |  |
| C[C@H]1NC(=O)[C@H](CO)NC(=O)[C@@H](CCC(=O)O)NC(=O)c2cc3cc(c2)C(=O)NC[C@H](NC(=O)[C@H](CO)NC(=O)[C@H](Cc2c[nH]cn2)NC(=O)[C@@H](Cc2ccccc2)NC1=O)C(=O)N[C@H](Cc1ccccc1)C(=O)N[C@@H](Cc1ccc2ccccc2c1)C(=O)N[C@@H](CCCNC(=N)N)C(=O)N[C@H](CCCNC(=N)N)C(=O)N[C@@H](CCCNC(=N)N)C(=O)N[C@H](CCCNC(=N)N)C(=O)N[C@H](C(N)=O)CNC3=O [Peptide C17, TMA-glu-Ser-ala-phe-His-Ser-Dap-phe-Nal-Arg-arg-Arg-arg-Dap] ([dE]S[dA][dF]HS[Dap][dF][2Nal]R[dR]R[dR][Dap]-NH2; linker N-7-14 via Trimesoyl) |  |  |  | did not inhibit |  | 1.17 |  | no effect |  |  |  | > 25000 | neither peptide B7 nor C17 affected mitochondrial localization |  |  |
| CC(C)C[C@H]1NC(=O)[C@H](c2ccccc2)NC(=O)[C@H](CO)NC(=O)[C@@H](Cc2ccc3ccccc3c2)NC(=O)[C@@H](CC(N)=O)NC(=O)[C@H](Cc2ccc(O)cc2)NC(=O)c2cc3cc(c2)C(=O)NC[C@H](NC(=O)[C@@H](CC(C)C)NC1=O)C(=O)N[C@@H](Cc1ccc(Cl)cc1)C(=O)N[C@H](Cc1ccc2ccccc2c1)C(=O)N[C@H](CCCNC(=N)N)C(=O)N[C@@H](CCCNC(=N)N)C(=O)N[C@H](CCCNC(=N)N)C(=O)N[C@@H](CCCNC(=N)N)C(=O)N[C@H](C(N)=O)CNC3=O [Peptide B7-131-1, TMA-Tyr-asn-nal-Ser-Phg-leu-leu-Dap-4-ClPhe-nal-arg-Arg-arg-Arg-Dap] (Y[dN][d2Nal]S[Phg][dL][dL][Dap][Phe(4-Cl)][d2Nal][dR]R[dR]R[Dap]-NH2; linker N-8-15 via Trimesoyl) |  | Competition for Etf-1 binding was observed |  | significantly inhibited |  |  | significant release of lactate dehydrogenase | significantly inhibited |  |  | < 20 |  |  | greater loss of cell viability | certain degrees of cytotoxicity |
